Experimental findings from US5932208A, “Compositions and methods for the use of such compositions in human therapeutics, characterized by the association of a muramyl peptide with a cytokine” (Vacsyn S.A., priority 1993, dated 1999) are described below.

Values joined by “and” are separate entries in the source; they are usually repeats but may differ in a detail not shown here. Equal entries are not always repeated. A value given as a limit tells only on which side of the number the result lay.

Series [1] deals with IL-1 receptor antagonist (IL-1 RA). As to the kind of experiment: IL-1 receptor antagonist (IL-1 RA) test on sera of healthy volunteers. It counts as in vivo, human. The conditions noted are these: α-IFN 0, muramyl peptide 100 μg/Kg alone; 6 hours after administration. As for the experimental part: (§1) They receive subcutaneously the mixtures described in the following table I of murabutide (MUB) or murametide (MUM) with α-interferon 2a (α-IFN).
(§2) Blood samples are taken before injection and 6 hours, 24 hours and 48 hours after injection, in order to collect the serum necessary to carry out the tests for neopterine, interleukin 1, 6 and 8, G-CSF, IL-1 RA and α-TNF.
(§3) The blood samples for the serum tests are centrifuged at 4° C. and 3000 rpm for 10' immediately after they are taken. The sera are stored at -20° C. The leucocyte counts and the neopterine and cytokine tests are carried out using commercial kits.

The subject of the next series is sTNFR2. The series is described as follows: In vitro incubation of blood of healthy volunteers: sTNFR2 secreted. The class given is cell-based, human. Here is the method: (§4) Blood taken from healthy volunteers was incubated in vitro with different combinations associating murabutide and α-IFN. The murabutide was used at a dose of 20 μg/ml and the IFN was used at a dose of from 30 to 100 μ/ml. At different times in the course of incubation, blood samples are taken and the mononucleated cells are separated on a Ficoll gradient. The total RNA is extracted, purified and separated by electrophoresis. It is then analysed in accordance with the Schreck method in order to determine by a hybridisation technique what genes were induced by the treatment.
(§5) Studies similar to those described above were carried out in order to study the murabutide-GM-CSF association. These studies were carried out in vitro on the cells of healthy volunteers after incubation with immunomodulators alone or in association.
(§6) Specific cytokines were sought and measured in the supernatants (see Table XIII).

For series [2], the system named is IL-6. As to the kind of experiment: IL-6 test (Elisa) on sera of healthy volunteers. It counts as in vivo, human. The following applies: α-IFN 0, muramyl peptide 100 μg/Kg alone; 6 hours after administration. As for the experimental part: as §1, §2, §3
The test is carried out using an Elisa test kit (British Biotechnology Products Ltd.) on sera taken at time 0 and after 6 hours. The figures express the pg/ml, the normal values are less than 6 pg.

In another series the test system is IL-1 RA. As to the kind of experiment: In vitro incubation of blood of healthy volunteers: IL-1 RA secreted. It counts as cell-based, human. Here is the method: as §4, §5, §6
The next series has as its system neopterine. As to the kind of experiment: Neopterine test (RIA) on sera of healthy volunteers. It counts as in vivo, human. The following applies: for Influence on the amount of neopterine, in words: dose of 100 μg/kg alone; for Neopterine in serum: muramyl peptide 100 μg/Kg alone (α-IFN 0). Here is the method: as §1, §2, §3
The tests are carried out on sera taken at 0, 24 and 48 hours. An RIA (Radio Immuno Assay) kit (Behring Diagnostic, France) is used. The results are expressed in […], and the normal values vary from […].

In a further series the test system is neutrophils. The series is described as follows: Neutrophil counts in healthy volunteers after single subcutaneous administration. The following applies: α-IFN 0, muramyl peptide 100 μg/Kg alone; highest value during the 24 hours after administration. The class given is in vivo, human. Here is the method: as §1
The subjects are monitored during the three days following the administration of the IFN and/or the muramyl peptides, and all of the tests and investigations necessary to carry out a phase I test are effected.
Haematological analysis with white corpuscle counts at the time of injection and then 6 hours, 12 hours, 24 hours, 36 hours, 60 hours and 72 hours after injection.
The leucocyte counts are carried out in a COULTER COUNTER automatic cell counter.
Neutrophils are the cells which are the most affected by leucopenic treatments. It is the reduction in the amount of neutrophils which is responsible for the reduction in the non-specific immune defences in subjects subjected to radiotherapy or to cytotoxic and/or myelotoxic chemotherapy. To make reading easier, only the neutrophil counts made at the time when their variation is at its greatest have been given.

In series [3] the test system is IL-6. As to the kind of experiment: In vitro incubation of blood of healthy volunteers: IL-6 secreted. It counts as cell-based, human. Here is the method: as §4, §5, §6
Another series concerns Swiss mice. The series is described as follows: Endotoxic shock (D-galactosamine + LPS) model in Swiss mice. The following applies: for Average % mortality / Number of dead mice per total tested, Exp. 1 / Number of dead mice per total tested, Exp. 2 / Number of dead mice per total tested, Exp. 3: intravenously, mortality after 48 hours. It counts as in vivo. Here is the method:
The administration of D-galactosamine with lipopolysaccharide (LPS) to Swiss mice induces endotoxic shock with at least 70% mortality in 24-48 hours. The prophylactic or therapeutic effect of murabutide was studied in this model in order to evaluate its anti-inflammatory activity when it is administered alone or in combination with α/β-IFN. […] On the contrary, pretreatment with a combination of murabutide and α/β-interferon induces significant protection with an incidence of mortality of only 33% (against 78% in the controls).
^1) The Swiss mice were tested intraperitoneally at time 0 with 18 mg
of Dgalactosamine + 50 ng of LPS. The mortality was measured after 48
^2) The compounds are administered intravenously either 3 hours befor

For another series, the system named is G-CSF. As to the kind of experiment: G-CSF test on sera of healthy volunteers. The following applies: α-IFN 0, muramyl peptide 100 μg/Kg alone; for Amounts of G-CSF in serum after 0 hour: before administration. The class given is in vivo, human. Here is the method:
as §1, §2, §3
These tests were carried out using the British Biotechnology Products Ltd. kit (see Table VI).

The test system of series [4] is Soluble TNF receptor (STNF-R). As to the kind of experiment: Soluble TNF receptor (STNF-R) ELISA test in serum. The class given is in vivo, human. The following applies: α-IFN 6 × 10^6 units and/or murabutide 100 μg/Kg. As for the experimental part: These tests are carried out by an ELISA test in the serum of subjects having 6M units of IFN. At that dose, there is already an appreciable increase in the amount of STNF-R but the addition of murabutide permits a significant increase in the secretion of that mediator.

In another series the test system is circulating neutrophils. As to the kind of experiment: Neutrophil count after repeated administration to humans (days 1, 3 and 5). It counts as in vivo, human. The following applies: α-IFN 2a 1 MU and/or murabutide 7 mg on days 1, 3 and 5. Here is the method:
Phase I/IIa tests were carried out on 3 groups of 6 healthy volunteers who received the following treatments on days 1, 3 and 5:
a) α-IFN 2a (1 MU) Roferon;
c) the association of the two immunostimulants.
By studying their influence on the number of circulating neutrophils.

In another series the test system is KHT sarcoma cells. As to the kind of experiment: KHT sarcoma model in C3H/HeN mice, IL-2 with murametide. It counts as in vivo. As for the experimental part: A murine model has been developed in C3H/HeN mice. KHT sarcoma cells are administered by the venous route. After 4 days and 6 days they are treated with:
c) the association of the two immunomodulators;
d) a fourth group is not treated.

The mark [5] stands for this setting: +1 hr, Murabutide 15 mg/kg and/or α/β-IFN 1.25 × 10^6 IU/kg (alone: 11.25 × 10^6 IU/kg [sic]).
Setting [6] is: Murabutide 15 mg/kg alone, -3 hrs.
Where [7] appears, read: GM-CSF 1 ng/ml, without or with Murabutide 20 μg/ml.
Setting [8] is: GM-CSF 5 ng/ml, without or with Murabutide 20 μg/ml.

As for `CCCCOC(=O)[C@@H](CCC(N)=O)NC(=O)[C@H](C)NC(=O)[C@@H](C)O[C@H]1[C@H](O)[C@@H](CO)OC(O)[C@@H]1NC(C)=O` (stereo partly shown) [Murabutide, murabutide], in series [1], the “Amounts of IL-1 RA in the serum” value stood at 496 ± 326 pg/mL. In addition, the “Average amounts of cytokines secreted: sTNFR2” value in the series with sTNFR2 (Murabutide 20 μg/ml alone) amounted to 1171 ± 478 pg/mL. In addition, the “Amounts of IL-6 in the serum” value with IL-6 [2] is 2.80 ± 1.60 pg/mL and 4.30 ± 1.80 pg/mL. In addition, the “Average amounts of cytokines secreted: IL-1 RA” value with IL-1 RA (Murabutide 20 μg/ml alone) came to 7.8 ± 6.0 ng/mL. In addition, the “Influence on the amount of neopterine, in words” value in the series with neopterine was “does not influence the amount significantly”. Besides, in the series with neopterine (T 0 hours), the Neopterine in serum amounted to 6.37 ± 0.99 nM. Moreover, the Neopterine in serum in the series with neopterine (T 24 hours) amounted to 7.33 ± 0.75 nM. For the same compound, the Neopterine in serum in the series on neopterine (T 48 hours) was 8.22 ± 1.39 nM. The “Neutrophil count % base line” value in the series on neutrophils worked out at 268 ± 43 % base line. For the same compound, the “Average amounts of cytokines secreted: IL-6” value in the series with IL-6 [3] (Murabutide 20 μg/ml alone) turned out to be 15.5 ± 11.3 pg/mL. Also, in the series with Swiss mice (setting [5]), the Average % mortality came out at 31%; the “Number of dead mice per total tested, Exp. 1” value is listed as 2/9; the “Number of dead mice per total tested, Exp. 2” value is reported as 3/8; the “Number of dead mice per total tested, Exp. 3” value was 3/9. Moreover, in the series with Swiss mice (setting [6]), the Average % mortality amounted to 74%; the “Number of dead mice per total tested, Exp. 1” value is on record as 7/9; the “Number of dead mice per total tested, Exp. 2” value was 7/8; the “Number of dead mice per total tested, Exp. 3” value is on record as 6/10. Also, the “Curative effect, in words” value in the series on Swiss mice (administration 1 hour after the induction of endotoxic shock) is on record as “significant curative effect”. Moreover, in the series with Swiss mice (pretreatment of the mice), the “Prophylactic effect against the galactosamine/LPS mixture, in words” value is on record as “does not give rise to a prophylactic effect”. In the series with G-CSF, the “Amounts of G-CSF in serum after 6 hours” value turned out to be 18 ± 9 and the “Amounts of G-CSF in serum after 0 hour” value is reported as less than 10. In addition, in [4], the “Amount of STNF-R in the serum, 0 hour” value is 195 ± 28 pg/mL and the “Amount of STNF-R in the serum, 6 hours” value turned out to be 616 ± 65 pg/mL. Besides, the STNF-R net increase in series [4] (6 hours versus 0 hour) is 31 ± 37 pg/mL. In addition, in the series on circulating neutrophils (day of treatment 1), the “Neutrophil count (% of the base line) after 3 hours” value was 139 ± 26 % of the base line, the “Neutrophil count (% of the base line) after 6 hours” value was 256 ± 51 % of the base line and the “Neutrophil count (% of the base line) after 12 hours” value is on record as 227 ± 46 % of the base line. Also, in the series on circulating neutrophils (day of treatment 3), the “Neutrophil count (% of the base line) after 3 hours” value was 133 ± 24 % of the base line, the “Neutrophil count (% of the base line) after 6 hours” value is 182 ± 27 % of the base line and the “Neutrophil count (% of the base line) after 12 hours” value was 176 ± 59 % of the base line. In addition, in the series with circulating neutrophils (day of treatment 5), the “Neutrophil count (% of the base line) after 3 hours” value is 107 ± 19 % of the base line, the “Neutrophil count (% of the base line) after 6 hours” value is given as 150 ± 28 % of the base line and the “Neutrophil count (% of the base line) after 12 hours” value is reported as 153 ± 23 % of the base line.
For the compound `COC(=O)[C@@H](CCC(N)=O)NC(=O)[C@H](C)NC(=O)C(C)O[C@H]1[C@H](O)[C@@H](CO)O[C@H](O)[C@@H]1NC(C)=O` (stereo partly shown) [Murametide, murametide], the “Influence on the amount of neopterine, in words” value with neopterine was “does not influence the amount significantly”. Besides, the results for the Neopterine in serum in the series with neopterine (T 0 hours), in the series on neopterine (T 24 hours) and with neopterine (T 48 hours) were 5.43 ± 0.66 nM, 7.14 ± 1 nM and 7.39 ± 1.37 nM, respectively. In the series on neutrophils, the “Neutrophil count % base line” value is listed as 279 ± 67 % base line. In the series on KHT sarcoma cells (mice having pulmonary sarcoma metastases, preliminary data), the Antitumour activity entry is recorded as “no antitumour activity”. Moreover, the “Toxicity of IL-2 in mice having tumours” value with KHT sarcoma cells (mice having tumours) is listed as “reduces the toxicity of IL-2”. Besides, in the series on G-CSF, the “Amounts of G-CSF in serum after 6 hours” value was 73 ± 115. Besides, in the series with G-CSF, the “Amounts of G-CSF in serum after 0 hour” value is recorded as 61 ± 103.
Take GM-CSF: cytokine GM-CSF: the “Average amounts of cytokines secreted: sTNFR2” value stood at 1027 ± 624 pg/mL with sTNFR2 (setting [7]) and 1359 ± 350 pg/mL in the series on sTNFR2 (setting [8]). For the same compound, the “Average amounts of cytokines secreted: IL-1 RA” value in the series on IL-1 RA (setting [7]) turned out to be 4.0 ± 1.4 ng/mL; with IL-1 RA (setting [8]), 8.7 ± 10.0 ng/mL. The entries for the “Average amounts of cytokines secreted: IL-6” value with IL-6 [3] (setting [7]) and in the series on IL-6 [3] (setting [8]) were 2.0 ± 1.5 pg/mL and 2.3 ± 2.1 pg/mL, respectively.
